The values below come from the NIST ThermoML archive (doi:10.1016/j.tca.2016.03.025).

The conditions of series [1]: Crystal; DTA.
Series [2] in a line: Molar enthalpy of transition or fusion. Particulars: Crystal; DSC.

Numbers after ± are expanded uncertainties.

With `COc1cccc([C@@]2(O)CCCC[C@@H]2CN(C)C)c1.Cl` [tramadol hydrochloride], in series [1], the Normal melting temperature came to 184.1 ± 2 °C. The “Molar enthalpy of transition or fusion” value in series [2] stood at 7.07 ± 0.311 kcal/mol.
Take `CC(=O)Nc1ccc(O)cc1` [N-acetyl-p-aminophenol]: the Normal melting temperature in series [1] is 170.2 ± 2 °C. Moreover, the “Molar enthalpy of transition or fusion” value in series [2] worked out at 6.51 ± 0.196 kcal/mol.
On the same counts, the results for `CCC(=O)O[C@](Cc1ccccc1)(c1ccccc1)[C@H](C)CN(C)C.Cl` [Dextropropoxyphene hydrochloride] are 168 ± 2 °C and 7.6 ± 0.382 kcal/mol.
On the same counts, the results for `CN[C@@H](C)[C@@H](O)c1ccccc1.Cl` [Pseudoephedrine hydrochloride] are 185 ± 2 °C and 6.54 ± 0.237 kcal/mol.
